Reference: ChEMBL document CHEMBL1667779, “Structure-based parallel medicinal chemistry approach to improve metabolic stability of benzopyran COX-2 inhibitors” (Bioorg Med Chem Lett, 2011)

Legend:
[1] = target: Prostaglandin G/H synthase 1 (Homo sapiens, UniProt P23219)
[2] = species: Homo sapiens; assay: Selectivity ratio of IC50 for human COX1 to IC50 for human COX2
[3] = Metabolic stability of the compound in human liver microsomes assessed as compound remaining at 2 mM after 30 mins by LC/MS analysis; assay type: ADME, Microsome; conditions: read-out: Stability
[4] = Metabolic stability of the compound in rat liver microsomes assessed as compound remaining at 2 mM after 30 mins by LC/MS analysis; assay type: ADME, Microsome; conditions: read-out: Stability
[5] = target: T1, Prostaglandin G/H synthase 2 (Homo sapiens, UniProt P35354)
T1 sequence (P35354 whole entry): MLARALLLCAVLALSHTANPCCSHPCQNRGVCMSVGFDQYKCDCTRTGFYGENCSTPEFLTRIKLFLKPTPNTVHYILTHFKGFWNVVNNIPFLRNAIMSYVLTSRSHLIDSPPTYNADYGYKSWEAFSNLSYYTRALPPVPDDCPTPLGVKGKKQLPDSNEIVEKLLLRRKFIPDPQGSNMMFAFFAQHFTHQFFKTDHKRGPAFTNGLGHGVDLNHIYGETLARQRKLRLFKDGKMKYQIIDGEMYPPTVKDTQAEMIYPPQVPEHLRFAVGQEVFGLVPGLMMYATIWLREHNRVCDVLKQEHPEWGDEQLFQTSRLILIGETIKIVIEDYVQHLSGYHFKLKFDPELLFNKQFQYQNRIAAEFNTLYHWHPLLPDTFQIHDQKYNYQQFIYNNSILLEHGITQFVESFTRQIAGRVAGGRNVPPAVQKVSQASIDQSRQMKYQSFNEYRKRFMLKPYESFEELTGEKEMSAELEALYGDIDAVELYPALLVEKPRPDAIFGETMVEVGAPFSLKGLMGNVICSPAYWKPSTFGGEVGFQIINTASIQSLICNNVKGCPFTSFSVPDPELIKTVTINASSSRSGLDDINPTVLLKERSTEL

[6] = Solubility of the compound; assay type: physicochemical; conditions: read-out: Stability
[7] = Half life in human; assay type: ADME, organism-based; conditions: in vivo

Chain of Prostaglandin G/H synthase 1 (P23219 whole entry): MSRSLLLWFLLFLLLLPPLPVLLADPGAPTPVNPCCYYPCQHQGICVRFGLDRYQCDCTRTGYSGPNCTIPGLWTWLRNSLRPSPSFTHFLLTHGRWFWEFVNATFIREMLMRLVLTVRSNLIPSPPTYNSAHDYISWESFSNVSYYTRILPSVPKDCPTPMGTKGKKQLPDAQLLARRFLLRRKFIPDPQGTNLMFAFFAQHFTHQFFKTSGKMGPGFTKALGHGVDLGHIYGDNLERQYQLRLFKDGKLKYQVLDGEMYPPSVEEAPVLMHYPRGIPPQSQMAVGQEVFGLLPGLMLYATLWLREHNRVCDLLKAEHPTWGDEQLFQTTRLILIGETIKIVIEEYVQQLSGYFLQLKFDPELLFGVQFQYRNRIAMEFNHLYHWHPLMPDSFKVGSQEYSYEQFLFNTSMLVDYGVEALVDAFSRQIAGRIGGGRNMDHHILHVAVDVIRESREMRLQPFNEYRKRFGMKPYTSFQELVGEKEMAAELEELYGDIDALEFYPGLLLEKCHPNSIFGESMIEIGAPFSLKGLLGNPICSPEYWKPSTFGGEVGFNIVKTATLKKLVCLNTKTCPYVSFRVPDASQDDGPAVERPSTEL

Row | SMILES | IC50 [1] | Selectivity ratio [2] | remaining at 0.5 h [3] | remaining at 0.5 h [4] | IC50 [5] | solubility [6] | half-life [7]
1 | NS(=O)(=O)c1ccc(-c2cc(Cl)cc3c2OC(C(F)(F)F)C(C(=O)O)=C3)cc1 (stereo not drawn) | 91.4 µM | 120 |  |  |  |  | 
2 | Cc1ccc(-c2cc(Cl)cc3c2OC(C(F)(F)F)C(C(=O)O)=C3)cc1F (stereo not drawn) |  | 375 | 31% | 55% |  |  | 
3 | CCSc1ccc(-c2cc(Cl)cc3c2OC(C(F)(F)F)C(C(=O)O)=C3)cc1 (stereo not drawn) |  |  | 75% | 47% | 0.242 µM |  | 
4 | O=C(O)C1=Cc2cc(Cl)cc(-c3ccc(C(=O)O)cc3)c2OC1C(F)(F)F (stereo not drawn) | > 100 µM |  | 90% | 91% | > 100 µM |  | 
5 | O=C(O)C1=Cc2cc(Cl)cc(-c3ccc(F)cc3)c2OC1C(F)(F)F (stereo not drawn) |  | < 0.007 |  |  | > 100 µM |  | 
6 | O=C(O)C1=Cc2cc(Cl)cc(Cl)c2OC1C(F)(F)F (stereo not drawn) |  |  | 100% | 100% |  | > 30 µM | 15 days
7 | CS(=O)(=O)Nc1ccc(-c2cc(Cl)cc3c2OC(C(F)(F)F)C(C(=O)O)=C3)cc1 (stereo not drawn) | > 100 µM | > 2.5 | 100% | 53% | 40.1 µM |  | 
8 | COc1ccc(-c2cc(Cl)cc3c2OC(C(F)(F)F)C(C(=O)O)=C3)cc1C (stereo not drawn) | > 100 µM | > 295 | 84% | 61% | 0.339 µM |  | 
9 | CCc1ccc(-c2cc(Cl)cc3c2OC(C(F)(F)F)C(C(=O)O)=C3)cc1 (stereo not drawn) | 17.7 µM | 226 | 18% | 60% |  |  | 
10 | CCOc1ccc(-c2cc(Cl)cc3c2OC(C(F)(F)F)C(C(=O)O)=C3)cc1 (stereo not drawn) | 32 µM | 90.1 | 91% | 82% | 0.355 µM |  | 
11 | CC(C)Cc1ccc(-c2cc(Cl)cc3c2OC(C(F)(F)F)C(C(=O)O)=C3)cc1 (stereo not drawn) | 26.5 µM | 2 | 88% | 96% | 13.4 µM |  | 

Now from value to molecule:

Row | IC50 [1] | Selectivity ratio [2] | remaining at 0.5 h [3] | remaining at 0.5 h [4] | IC50 [5] | solubility [6] | half-life [7] | SMILES
12 | 4.34 µM | 42.1 | 18% | 60% | 0.103 µM |  |  | Cc1ccc(-c2cc(Cl)cc3c2OC(C(F)(F)F)C(C(=O)O)=C3)cc1 (stereo not drawn)
13 | 3.87 µM | 0.182 |  |  | 21.3 µM |  |  | CS(=O)(=O)c1ccc(-c2cc(Cl)cc3c2OC(C(F)(F)F)C(C(=O)O)=C3)cc1 (stereo not drawn)
14 | 2.44 µM | 0.38 | 93% | 75% | 6.38 µM |  |  | O=C(O)C1=Cc2cc(Cl)cc(-c3ccc(CO)cc3)c2OC1C(F)(F)F (stereo not drawn)
15 | 1.54 µM | 8.2 |  |  | 0.188 µM |  |  | O=C(O)C1=Cc2cc(Cl)cc(-c3ccccc3)c2OC1C(F)(F)F (stereo not drawn)
16 | 2.91 µM | 0.84 | 91% | 94% | 3.48 µM |  |  | O=C(O)C1=Cc2cc(Cl)cc(-c3ccc(O)cc3)c2OC1C(F)(F)F (stereo not drawn)
17 | 1.39 µM | 0.764 | 93% | 53% | 1.82 µM |  |  | Nc1ccc(-c2cc(Cl)cc3c2OC(C(F)(F)F)C(C(=O)O)=C3)cc1 (stereo not drawn)
18 | 0.242 µM | 11.4 | 53% | 57% | 0.0211 µM |  |  | O=C(O)C1=Cc2cc(Cl)cc(-c3ccc(Cl)cc3)c2OC1C(F)(F)F (stereo not drawn)
